Assays:
Type in all cases: cell-based
[1] = target: T1, 5-hydroxytryptamine receptor 2B (Homo sapiens, UniProt P41595); assay: Modulation of human 5HT2B expressed in HEK293T cells co-transfected with Galphaq-RLuc8, Ggamma1-GFP2 and Gbeta1 assessed as dissociation of Galphaq from Ggamma1 preincubated for 1 hr followed by addition of coelenterazine 400a substrate and measured after 15 mins by BRET assay
[2] = target: T2, 5-hydroxytryptamine receptor 2A (Homo sapiens, UniProt P28223); assay: Modulation of human 5HT2A expressed in HEK293T cells co-transfected with Galphaq-RLuc8, Ggamma1-GFP2 and Gbeta1 assessed as dissociation of Galphaq from Ggamma1 preincubated for 1 hr followed by addition of coelenterazine 400a substrate and measured after 15 mins by BRET assay relative to 5-HT; conditions: filed as modulator, time 75.0 min
[3] = target: T1, 5-hydroxytryptamine receptor 2B; assay: Modulation of human 5HT2B expressed in HEK293T cells co-transfected with Galphaq-RLuc8, Ggamma1-GFP2 and Gbeta1 assessed as dissociation of Galphaq from Ggamma1 preincubated for 1 hr followed by addition of coelenterazine 400a substrate and measured after 15 mins by BRET assay relative to 5-HT; conditions: time 75.0 min
[4] = target: T2, 5-hydroxytryptamine receptor 2A; assay: Modulation of human 5HT2A expressed in HEK293T cells co-transfected with Galphaq-RLuc8, Ggamma1-GFP2 and Gbeta1 assessed as dissociation of Galphaq from Ggamma1 preincubated for 1 hr followed by addition of coelenterazine 400a substrate and measured after 15 mins by BRET assay
[5] = target: T3, 5-hydroxytryptamine receptor 2C (Homo sapiens, UniProt P28335); assay: Modulation of human 5HT2C expressed in HEK293T cells co-transfected with Galphaq-RLuc8, Ggamma1-GFP2 and Gbeta1 assessed as dissociation of Galphaq from Ggamma1 preincubated for 1 hr followed by addition of coelenterazine 400a substrate and measured after 15 mins by BRET assay
T3 sequence (P28335 whole entry): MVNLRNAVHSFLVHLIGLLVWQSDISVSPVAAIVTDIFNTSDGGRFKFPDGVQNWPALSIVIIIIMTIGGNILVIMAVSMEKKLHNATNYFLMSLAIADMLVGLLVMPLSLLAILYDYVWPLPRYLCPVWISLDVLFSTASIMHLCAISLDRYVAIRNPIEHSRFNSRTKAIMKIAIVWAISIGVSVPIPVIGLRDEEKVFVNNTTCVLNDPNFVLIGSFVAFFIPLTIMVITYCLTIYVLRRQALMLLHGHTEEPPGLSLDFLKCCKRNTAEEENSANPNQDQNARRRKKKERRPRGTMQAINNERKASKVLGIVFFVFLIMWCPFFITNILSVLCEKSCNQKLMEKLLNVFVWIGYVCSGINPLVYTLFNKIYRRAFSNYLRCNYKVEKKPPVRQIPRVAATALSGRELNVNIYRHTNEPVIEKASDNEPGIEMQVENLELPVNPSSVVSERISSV

T1 sequence (P41595 whole entry): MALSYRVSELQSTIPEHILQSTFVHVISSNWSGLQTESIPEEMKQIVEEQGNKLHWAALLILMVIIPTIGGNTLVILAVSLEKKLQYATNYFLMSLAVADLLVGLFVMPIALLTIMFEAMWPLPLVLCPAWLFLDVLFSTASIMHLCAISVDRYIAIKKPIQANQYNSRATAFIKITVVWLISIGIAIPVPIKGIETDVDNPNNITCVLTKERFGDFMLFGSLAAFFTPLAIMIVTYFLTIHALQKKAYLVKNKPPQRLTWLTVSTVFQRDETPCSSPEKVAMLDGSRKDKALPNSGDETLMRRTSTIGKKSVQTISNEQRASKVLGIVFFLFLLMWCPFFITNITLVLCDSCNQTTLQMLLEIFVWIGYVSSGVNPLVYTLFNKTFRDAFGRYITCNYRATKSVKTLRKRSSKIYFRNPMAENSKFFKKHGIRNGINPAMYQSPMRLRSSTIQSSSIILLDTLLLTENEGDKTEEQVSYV
T2 sequence (P28223 whole entry): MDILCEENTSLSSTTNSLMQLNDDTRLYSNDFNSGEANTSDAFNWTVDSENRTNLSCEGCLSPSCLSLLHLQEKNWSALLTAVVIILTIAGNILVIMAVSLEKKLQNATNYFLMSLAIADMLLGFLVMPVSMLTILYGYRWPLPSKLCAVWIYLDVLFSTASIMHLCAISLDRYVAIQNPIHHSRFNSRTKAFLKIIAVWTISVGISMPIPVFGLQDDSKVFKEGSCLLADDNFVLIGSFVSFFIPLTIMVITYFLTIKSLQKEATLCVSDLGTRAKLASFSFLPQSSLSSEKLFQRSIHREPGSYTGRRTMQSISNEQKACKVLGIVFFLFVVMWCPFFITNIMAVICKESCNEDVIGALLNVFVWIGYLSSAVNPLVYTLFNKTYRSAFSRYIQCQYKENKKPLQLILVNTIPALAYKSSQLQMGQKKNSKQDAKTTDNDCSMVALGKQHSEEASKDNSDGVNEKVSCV

CN(C)CCc1cn(CC2CC2)c2cccc(O)c12
IC50 ([1]; hek293t): Not Active
Efficacy [2]: 29%

CN(CCc1cn(C)c2cccc(O)c12)CC1CC1
Efficacy [2]: 55%
Efficacy [3]: 19%

CC(C)N(C)CCc1cn(C)c2cccc(O)c12
Efficacy [2]: 85%
Efficacy ([3]; filed as modulator): 83%

CN(C)CCc1cn(C)c2cccc(O)c12
IC50 [4]: 0.0863 µM
IC50 ([1]; read-out: IC50): 0.0317 µM
Efficacy [2]: 73%
IC50 [5]: 0.00951 µM
Efficacy ([3]; filed as modulator): 40%

CCN(C)CCc1cn(C)c2cccc(O)c12
Efficacy [2]: 66%
Efficacy ([3]; filed as modulator): 44%

CN(C)CCc1c[nH]c2cccc(O)c12
Efficacy [2]: 82%
Efficacy ([3]; filed as modulator): 63%

CN(C)CCc1cn(CCF)c2cccc(O)c12
IC50 [4]: 0.188 µM
IC50 ([1]; hek293t): Not Active
Efficacy [2]: 48%
IC50 [5]: 0.0027 µM

CCn1cc(CCN(C)C)c2c(O)cccc21
IC50 [4]: 0.196 µM
IC50 ([1]; hek293t): Not Active
Efficacy [2]: 65%
IC50 [5]: 0.0009 µM
